Results reported in patent publication US20150038430A1, “THERAPEUTIC PEPTIDOMIMETIC MACROCYCLES” (AILERON Therapeutics, Inc., priority 2008, published 2015).
Numbered stars: 1 amine (or outer) side, 2 acyl side, 3 side chain; on linkers, the order of the positions; unused ones are H or OH. Bridge positions count the residues as written; N and C are the ends. Square brackets hold non-standard residues; d marks the D form. Peptide text beside a SMILES is read from it. ξ: configuration not given here. ξαMeNle(6-ylidene) = CC(CCCC=[*:3])(N[*:1])C(=O)[*:2]; Nle = CCCC[C@H](N)C(=O)O

Assays:
Bcl-xL = Bcl-xL (Homo sapiens, UniProt Q07817); experiment: Kd, μM | Bcl-xL
Chain of Bcl-xL (Q07817 whole entry, looked up): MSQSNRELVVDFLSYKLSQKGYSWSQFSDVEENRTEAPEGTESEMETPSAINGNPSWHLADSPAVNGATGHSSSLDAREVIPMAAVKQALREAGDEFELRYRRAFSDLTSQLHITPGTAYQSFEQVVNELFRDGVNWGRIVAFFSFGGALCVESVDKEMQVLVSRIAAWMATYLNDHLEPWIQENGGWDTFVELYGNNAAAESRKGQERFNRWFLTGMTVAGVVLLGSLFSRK
Description: (§1) Table printed on a drawing sheet, Figure 27
Head of the field: Kd, μM | Bcl-xL
Where the first naming reader finds the target: head: Kd, μM | Bcl-xL

Bcl-2 = experiment: Kd, μM | Bcl-2
Description: as §1
Head of the field: Kd, μM | Bcl-2
(§2) First copying reader's note: The last row (ABT-737) is a small-molecule comparator; the three plots above the table are not copied.
Where the first naming reader finds the target: head: Kd, μM | Bcl-2

Mcl-1 = experiment: Kd, μM | Mcl-1
Description: as §1
Head of the field: Kd, μM | Mcl-1
as §2
Where the first naming reader finds the target: head: Kd, μM | Mcl-1

SEMK2 = type: cell-based, human; settings: 24 h
Protocol: (§3) Cell viability assays shown in FIGS. 34-52 were performed according to a similar protocol. Cells were split at optimal cell density a day prior to the initiation of the study. The next day, cells were washed twice in serum-free Opti-MEM media and 4000 cells/well were added to each well in a final volume of […] Opti-MEM. For serum-free experiments, macrocycles were diluted from 2 mM stocks (100% DMSO) in sterile water to prepare 400 μM working solutions. A 40 μM solution was then generated by ten-fold dilution in assay buffer. The macrocycle and controls were then serially diluted two-fold in assay buffer in dosing plates to provide concentrations between 1.2 and 40 μM, respectively. For experiments in 2% human serum, macrocycles were diluted from 10 mM stocks (100% DMSO) in sterile water to prepare 1 mM working solutions. A 100 μM solution was generated by ten-fold dilution in assay buffer. The macrocycles and controls were then serially diluted two-fold in assay buffer in dosing plates to provide concentrations between 3 and 100 μM, respectively. 50 μl of each dilution was then added to the appropriate wells of the test plate to achieve final concentrations of the macrocycle between 0.6 to 20 μM (for serum free experiment) or 1.5 to 50 μM (for 2% serum experiment), respectively. Controls included wells without macrocycles containing the same concentration of DMSO as the macrocycle-containing wells, wells containing 0.1% Triton X-100, and wells containing no cells. Plates were incubated for 24 hours at 37° C. in a humidified 5% CO2 atmosphere. At the end of a 24 hr incubation period, a CellTiter-Glo Luminescent Cell Viability Assay was performed according to manufacturer's instructions (Promega, catalog #G7571) and the luminescence was measured using a BIO-TEK synergy HT Plate reader. Values were plotted as percent viable, i.e. as a percentage of the negative control value (derived from cells exposed to DMSO only). All assays were performed in duplicate.
(§4) The following tables summarize the EC50 values (μM) observed with peptidomimetic macrocycles of the invention in various cell lines: […]

MM1S = type: cell-based, human; settings: 24 h
Protocol: as §3, §4

Raji = type: cell-based, human; settings: 24 h
Protocol: as §3, §4

Molt-4 = type: cell-based, human; settings: 24 h
Protocol: as §3, §4

RS4;11 = type: cell-based, human; settings: 24 h
Protocol: as §3, §4

Jurkat = type: cell-based, human; settings: 24 h
Protocol: as §3, §4

DHL-6 = type: cell-based, human; settings: 24 h
Protocol: as §3, §4

MDA-MB231-Met = type: cell-based, human; settings: 24 h
Protocol: as §3, §4

OVCAR8 = type: cell-based, human; settings: 24 h
Protocol: as §3, §4

A375 = type: cell-based, human; settings: 24 h
Protocol: as §3, §4

PC3 = type: cell-based, human; settings: 24 h
Protocol: as §3, §4

NCI-H82 (SCLC-MCL1+) = type: cell-based, human; settings: 24 h
Protocol: as §3, §4

Row | Compound | Kd (Bcl-xL) [µM] | Kd (Bcl-2) [µM] | Kd (Mcl-1) [µM] | EC50 (SEMK2) [µM] | EC50 (MM1S) [µM] | EC50 (Raji) [µM] | EC50 (Molt-4) [µM] | EC50 (RS4;11) [µM] | EC50 (Jurkat) [µM] | EC50 (DHL-6) [µM] | EC50 (MDA-MB231-Met) [µM] | EC50 (OVCAR8) [µM] | EC50 (A375) [µM] | EC50 (PC3) [µM] | EC50 (NCI-H82 (SCLC-MCL1+)) [µM]
1 | CC[C@H](C)[C@H](NC(C)=O)C(=O)N[C@@H](Cc1c[nH]c2ccccc12)C(=O)N[C@H](C(=O)N[C@@H](C)C(=O)N[C@@H](CCC(N)=O)C(=O)N[C@@H](CCC(=O)O)C(=O)N[C@@H](CC(C)C)C(=O)N[C@@H](CCCNC(=N)N)C(=O)NC1(C)CCCC=CCCCC(C)(C(=O)N[C@@H](Cc2ccccc2)C(=O)N[C@@H](CC(N)=O)C(=O)N[C@@H](C)C(=O)N[C@@H](Cc2ccc(O)cc2)C(=O)N[C@@H](Cc2ccc(O)cc2)C(=O)N[C@@H](C)C(=O)N[C@@H](CCCNC(=N)N)C(=O)N[C@@H](CCCNC(=N)N)C(N)=O)NC(=O)[C@H](CC(=O)O)NC(=O)[C@H](CCC(=O)O)NC(=O)[C@H]([C@@H](C)CC)NC1=O)[C@@H](C)CC (some centres unmarked) [SP-5] (Ac-IWIAQELR[ξαMeNle(6-ylidene)]IED[ξαMeNle(6-ylidene)]FNAYYARR-NH2; staple 9-13) | > 10 | > 10 | > 10 |  |  |  |  |  |  |  |  |  |  |  | 
2 | CCCC[C@H](NC(=O)[C@H](CO)NC(=O)[C@H](CC(=O)O)NC(=O)CNC(=O)[C@@H](NC(=O)[C@H](CCC(N)=O)NC(=O)[C@H](C)NC(=O)[C@H](CC(C)C)NC(=O)[C@H](Cc1c[nH]cn1)NC(=O)[C@H](CCCNC(=N)N)NC(=O)[C@H](C)NC(=O)[C@@H](NC(=O)[C@H](CC(N)=O)NC(=O)[C@H](CCCNC(=N)N)NC(=O)[C@@H](NC(=O)[C@@H](NC(=O)[C@H](CC(=O)O)NC(C)=O)[C@@H](C)CC)[C@@H](C)CC)[C@@H](C)CC)C(C)C)C(=O)N[C@@H](CC(=O)O)C(=O)N[C@@H](CCCNC(=N)N)C(=O)N[C@@H](CO)C(=O)N[C@H](C(N)=O)[C@@H](C)CC [SP-3] (HELM PEPTIDE1{[ac].D.I.I.R.N.I.A.R.H.L.A.Q.V.G.D.S.[Nle].D.R.S.I.[am]}$$$$V2.0) | 0.4 | > 10 | 0.12 | > 20 | > 20 | > 20 | > 20 | > 20 | > 20 | > 20 |  |  |  |  | 
3 | CC[C@H](C)[C@H](NC(C)=O)C(=O)N[C@@H](Cc1c[nH]c2ccccc12)C(=O)N[C@H](C(=O)N[C@@H](C)C(=O)N[C@@H](CCC(N)=O)C(=O)N[C@@H](C)C(=O)N[C@@H](CC(C)C)C(=O)N[C@@H](CCCNC(=N)N)C(=O)NC1(C)CCCC=CCCCC(C)(C(=O)N[C@@H](Cc2ccccc2)C(=O)N[C@@H](CC(N)=O)C(=O)N[C@@H](C)C(=O)N[C@@H](Cc2ccc(O)cc2)C(=O)N[C@@H](Cc2ccc(O)cc2)C(=O)N[C@@H](C)C(=O)N[C@@H](CCCNC(=N)N)C(=O)N[C@@H](CCCNC(=N)N)C(N)=O)NC(=O)[C@H](CC(=O)O)NC(=O)CNC(=O)[C@H]([C@@H](C)CC)NC1=O)[C@@H](C)CC (some centres unmarked) [SP-11] (Ac-IWIAQALR[ξαMeNle(6-ylidene)]IGD[ξαMeNle(6-ylidene)]FNAYYARR-NH2; staple 9-13) | 0.25 | 2.8 | < 0.1 | 2.6 | 1.9 | 2.7 | 1.6 | 3.7 | 0.9 | 0.9 | 2 | 3.2 | 4.3 | 4.6 | 1.2
4 | CCCC[C@H](NC(=O)C1(C)CCCC=CCCCC(C)(NC(=O)[C@H](C)NC(=O)[C@H](CC(C)C)NC(=O)[C@H](Cc2c[nH]cn2)NC(=O)[C@H](CCCNC(=N)N)NC(=O)[C@H](C)NC(=O)[C@@H](NC(=O)[C@H](CC(N)=O)NC(=O)[C@H](CCCNC(=N)N)NC(=O)[C@@H](NC(=O)[C@@H](NC(=O)[C@H](CC(=O)O)NC(C)=O)[C@@H](C)CC)[C@@H](C)CC)[C@@H](C)CC)C(=O)N[C@@H](C(C)C)C(=O)N[C@@H](CCC(=O)O)C(=O)N[C@@H](CC(=O)O)C(=O)N1)C(=O)N[C@@H](CC(=O)O)C(=O)N[C@@H](CCCNC(=N)N)C(=O)N[C@@H](CO)C(=O)N[C@H](C(N)=O)[C@@H](C)CC (some centres unmarked) [SP-2] (Ac-DIIRNIARHLA[ξαMeNle(6-ylidene)]VED[ξαMeNle(6-ylidene)][Nle]DRSI-NH2; staple 12-16) | > 10 | > 10 | > 10 | > 20 | > 20 | > 20 | > 20 | > 20 | > 20 |  | > 20 | > 20 | > 20 |  | > 20
